Measurements reported in patent US20210251232A1, “USE OF FUNGICIDAL ACTIVE COMPOUND I DERIVATIVE AND MIXTURES THEREOF IN SEED APPLICATION AND TREATMENT METHODS” (BASF SE, priority 2018, published 2021).
Like-named read-outs stand apart in the source and are kept apart here.

Key:
Assay type in all cases: cell-based
Conditions in all cases: alone, 7 days after inoculation
[1] = system: Pyricularia oryzae
[2] = system: Leptosphaeria nodorum; assay: Microtiter test, activity against wheat leaf spots caused by Leptosphaeria nodorum
[3] = system: Phytophthora infestans
[4] = system: Botrytis cinerea; assay: Microtiterplate test, activity against the grey mold Botrytis cinerea
[5] = system: Qol resistant iso-late of Pyrenophora teres; assay: Microtiter test, activity against Pyrenophora teres

CN/C(=N\[N+](=O)[O-])NCc1cnc(Cl)s1 [Clothianidin]
Observed efficacy ([1]; 63 ppm): 0

N#Cc1ccc(Oc2ccc(C(F)(F)C(O)(Cn3ncnc3S)c3ccc(F)cc3F)nc2)cc1 (stereo not shown) [Compound I, 4-[[6-[2-(2,4-difluorophenyl)-1,1-difluoro-2-hydroxy-3-(5-sulfanyl-1,2,4-triazol-1-yl)propyl]-3-pyridyl]oxy]benzonitrile]
Observed efficacy ([1]; 1 ppm, 405 nm): 0 | Observed efficacy ([2]; 0.25 ppm): 0 | Observed efficacy ([2]; 1 ppm): 20 | Observed efficacy ([2]; 4 ppm, 405 nm): 37 | Observed efficacy ([3]; 4 ppm, 405 nm, 0 = growth as untreated control, 100 = no growth): 24 | Observed efficacy ([4]; 4 ppm, 405 nm): 24 | Observed efficacy ([5]; 4 ppm, 405 nm): 0

N#Cc1c[nH]cc1-c1cccc2c1OC(F)(F)O2 [Fludioxonil]
Observed efficacy ([1]; 0.016 ppm): 9 | Observed efficacy ([1]; 0.063 ppm): 17 | Observed efficacy ([1]; 0.25 ppm): 26

O=[N+]([O-])NC1=NCCN1Cc1ccc(Cl)nc1 [Imidacloprid]
Observed efficacy ([1]; 63 ppm): 0

CC(C)C1CCC(Cc2ccc(Cl)cc2)C1(O)Cn1cncn1 (stereo not shown) [Ipconazol]
Observed efficacy ([1]; 16 ppm): 0

CC(O)(Cn1cncn1)c1ccc(Oc2ccc(Cl)cc2)cc1C(F)(F)F (stereo not shown) [Mefentrifluconazol]
Observed efficacy ([2]; 0.016 ppm): 39 | Observed efficacy ([3]; 0.016 ppm): 0 | Observed efficacy ([4]; 0.016 ppm): 0 | Observed efficacy ([5]; 0.25 ppm): 31

Cc1cc(C(F)(F)F)nn1CC(=O)N1CCC(c2nc(C3=NOC(c4c(F)cccc4F)C3)cs2)CC1 (stereo not shown) [Oxathiapirolin]
Observed efficacy ([1]; 16 ppm): 0

COC(=O)N(OC)c1ccccc1COc1ccn(-c2ccc(Cl)cc2)n1 [Pyraclostrobin]
Observed efficacy ([2]; 0.016 ppm): 42

CC(c1ccc(C(F)(F)F)nc1)S(C)(=O)=NC#N (stereo not shown) [Sulfoxaflor]
Observed efficacy ([1]; 63 ppm): 0

COC(=O)NC(=S)Nc1ccccc1NC(=S)NC(=O)OC [Thiophanate methyl]
Observed efficacy ([1]; 4 ppm): 0

Spinetoram
Observed efficacy ([1]; 63 ppm): 0
